This is an account of results in US8772266B2, “Fungicide pyrazole carboxamides derivates” (Bayer Cropscience AG, priority 2009, dated 2014).

Bounds are passed on as bounds.

What is called logP is a log measure of how a compound divides between an organic and an aqueous phase. The term chromatographic logP denotes a lipophilicity value derived from retention on a column. Read a low chromatographic logP as a more hydrophilic compound. Usually inhibition stands for how much of the control response was suppressed.

The subject of series [1] is Phakopsora pachyrhizi. The series is described as follows: In vivo preventive test on Phakopsora pachyrhizi (soybean rust). As to conditions: 50 ppm of active ingredient, evaluated 11 days after inoculation. The protocol:
Solvent: 28.5 parts by weight of acetone
Emulsifier: 1.5 parts by weight of polyoxyethylene alkyl phenyl ether
One day after spraying, the plants are inoculated with an aqueous spore suspension of the causal agent of soybean rust (Phakopsora pachyrhizi).
The test is evaluated 11 days after the inoculation.

For series [2], the system named is Fusarium nivale. The series is described as follows: In vivo curative test on Fusarium nivale (wheat). To be noted: 500 ppm of active ingredient, evaluated 8 days after inoculation.
In series [3] the test system is Tetranychus urticae. The series is described as follows: Spray application test on Tetranychus urticae. To be noted: 500 g of active ingredient/ha; after 6 days. In kind it is in vivo. The protocol:
Solvent: 78.0 parts by weight acetone • 1.5 parts by weight dimethylformamide
Emulsifier: 0.5 parts by weight alkylarylpolyglcolether
French beans (Phaseolus vulgaris) which are heavily infested with all stages of the two spotted spidermite (Tetranychus urticae), are sprayed with a preparation of the active ingredient at the desired concentration.
After 6 days, mortality in % is determined. 100% means that all spider mites have been killed and 0% means that none of the spider mites have been killed.

Series [4] is described as follows: logP by HPLC on reversed-phase column (EEC Directive 79/831 Annex V.A8). As to conditions: for logP: HPLC, reversed-phase column (C 18), 40° C., 0.1% aqueous formic acid and acetonitrile, linear gradient 10% to 90% acetonitrile.
The test system of series [5] is Puccinia triticina. Kind of series: In vivo curative test on Puccinia triticina (wheat). As to conditions: 500 ppm of active ingredient, evaluated 8 days after inoculation.
Series [6] relates to Sphaerotheca fuliginea. Kind of series: In vivo preventive test on Sphaerotheca fuliginea (cucumber), Example G. As to conditions: 10 ppm of active ingredient, evaluated 7 days after inoculation. The text has this: After the spray coating has dried on, the plants are inoculated with an aqueous spore suspension of Sphaerotheca fuliginea.
For series [7], the system named is Aspergillus parasiticus. Kind of series: microbe, parasite or virus in culture. It counts as cell-based. To be noted: 168 h, 50 μM of active ingredient, 7 days, fluorescence, read-out: inhibition of aflatoxines production.
The subject of series [8] is Meloidogyne incognita. Kind of series: Test on Meloidogyne incognita. In kind it is in vivo. As to conditions: 20 ppm of active ingredient; after 14 days. The protocol:
Solvent: 80.0 parts by weight of acetone
Vessels are filled with sand, a solution of the active ingredient, a suspension containing eggs and larvae of Meloidogyne incognita and salad seeds. The salad seeds germinate and the seedlings grow. Galls develop in the roots.
After 14 days the nematicidal activity is determined on the basis of the percentage of gall formation. 100% means that no galls were found; 0% means that the number of galls found on the roots of the treated plants was equal to that in untreated control plants.

For series [9], the system named is Fusarium proliferatum. Kind of series: Inhibition of Fumonisin FB1 produced by Fusarium proliferatum. It counts as cell-based. To be noted: 120 h, read-out: inhibition of Fumonisin FB1 production.

On to `Cc1nn(C)c(F)c1C(=S)N(Cc1ccccc1[Si](C)(C)C)C1CC1` [N-cyclopropyl-5-fluoro-1,3-dimethyl-N-[2-(trimethylsilyl)benzyl]-1H-pyrazole-4-carbothioamide], for which the disease control entry in series [1] was “less than 85%”.
For the compound `Cn1nc(C(F)F)c(C(=O)N(Cc2ccccc2SC(F)(F)F)C2CC2)c1F` [Example 30], the disease control in series [2] was 100%. In [3], this compound yielded a mortality in % of 80%. This compound also yielded a logP in series [4] of 3.74.
With `CC(c1cccc2ccccc12)N(C(=O)c1c(C(F)F)nn(C)c1F)C1CC1` (stereo not shown) [N-cyclopropyl-3-(difluoromethyl)-5-fluoro-1-methyl-N-[1-(1-naphthyl)ethyl]-1H-pyrazole-4-carboxamide, reference compound], the disease control result in series [2] is listed as “less than 95%”; in series [5], “less than 85%”.
Turning to `Cn1nc(C(F)F)c(C(=O)N(Cc2cc(Cl)ccc2C(F)(F)F)C2CC2)c1F` [Example 1], the disease control in [2] and in series [6] was 100% each time. Besides, in [3], the mortality in % is 80%. In [4], this compound returned a logP of 3.8.
Regarding `CC(c1cc(Cl)cc(Cl)c1)N(C(=O)c1c(C(F)F)nn(C)c1F)C1CC1` (racemic) [Example 40], the disease control in [2] is 100%. This compound also showed a mortality in % in [3] of 80%. The compound also displayed a logP in series [4] of 4.04.
In the case of `Cn1nc(C(F)F)c(C(=O)N(Cc2ccccc2[Si](C)(C)C)C2CC2)c1F` [Example 3, N-cyclopropyl-3-(difluoromethyl)-5-fluoro-1-methyl-N-[2-(trimethylsilyl)benzyl]-1H-pyrazole-4-carboxamide], the chromatographic logP in series [4] came to 4.36. Further, the inhibition at 50 µM in series [7] is more than 80%.
In the case of `CC(C)c1ccccc1CN(C(=O)c1c(C(F)F)nn(C)c1F)C1CC1` [Example 6], the disease control in [2] and in series [6] was 100% in each case. The compound also yielded a mortality in % in series [3] of 80%. In series [4], the logP worked out at 3.35. For the same compound, the “nematicidal activity (% reduction of galls vs untreated control)” value in series [8] was 80%.
`Cn1nc(C(F)F)c(C(=O)N(Cc2c(C(F)(F)F)ccc(Cl)c2F)C2CC2)c1F` [Example 5]: the disease control in [2] and in series [6] was 100% throughout. In series [3], this compound showed a mortality in % of 80%. This compound returned a logP in [4] of 3.62.
In series [4], `Cn1nc(C(F)F)c(C(=S)N(Cc2ccccc2[Si](C)(C)C)C2CC2)c1F` [Example 38, N-cyclopropyl-3-(difluoromethyl)-5-fluoro-1-methyl-N-[2-(trimethylsilyl)benzyl]-1H-pyrazole-4-carbothioamide] returned a chromatographic logP of 4.94. The compound further displayed a disease control in [6] of 100%. Moreover, in [7], the inhibition at 50 µM is more than 80%.
Turning to `Cn1nc(C(F)F)c(C(=O)N(Cc2ncc(C(F)(F)F)cc2Cl)C2CC2)c1F` [N-{[3-chloro-5-(trifluoromethyl)pyridin-2-yl]methyl}-N-cyclopropyl-3-(difluoromethyl)-5-fluoro-1-methyl-1H-pyrazole-4-carboxamide], the inhibition at 50 µM in series [9] was less than 55%.
